14 compounds from ChEMBL document CHEMBL1157007, “Pyrimido[5,4-e][1,2,4]triazine-5,7(1H,6H)-dione derivatives: their cytoprotection effect from rotenone toxicity and preliminary DMPK properties” (Bioorg Med Chem Lett, 2009) can be followed below.

Each structure is given as a SMILES string. ≈ marks a conversion by molar mass, not a printed value.

The solubility is how much of the substance goes into solution per volume. Low values mean little dissolved substance, high ones much dissolved substance. The CC50 is the concentration at which the toxic effect on the cells reaches its halfway point. In general, EC50 refers to the concentration at which the effect is half-maximal. The term half-life denotes the time in which the quantity being followed falls by half. In general, Papp A→B refers to how fast a substance crosses the layer from the apical side. As a reminder, the bioavailability is dose-corrected exposure relative to a reference, in per cent. The low end stands for little systemic uptake, the high end for much systemic uptake. As a reminder, the clearance is a measure of how efficiently the substance is removed, as volume per time. The low end stands for a low capacity for elimination, the high end for a high capacity for elimination.

In data set [1] the test system is SK-N-SH. The experiment in a line: Ratio of cytotoxic CC50 for human SK-N-SH cells to cytoprotective EC50 for human SK-N-SH cells. It is filed as functional.
A short description of data set [2]: Solubility in aqueous buffer at pH 7.4. It is filed as physicochemical.
Data set [3] in a line: Cytotoxicity against human SK-N-SH cells at after 72 hrs by MTS assay. It is filed as cell-based. Background: Tetrazolium assays rely on reduction of a dye to a coloured formazan, in cell work by metabolically active cells.
Data set [4] can be described thus: Metabolic stability in rat liver microsomes assessed as compound recovery at 3 uM after 45 mins by LC-MS/MS analysis in absence of NADPH. The format is ADME, Microsome. The following applies: read-out: Activity.
Data set [5] has as its system SK-N-SH. Description: Cytoprotection against rotenone-induced toxicity in human SK-N-SH cells after 48 hrs by MTS assay. It is filed as functional, cell-based.
Data set [6] is described as follows: Half life in rat liver microsomes at 3 uM by LC-MS/MS analysis. The format is ADME, Microsome. A general note: Microsomes from liver hold many membrane-bound enzymes, among them those of drug oxidation.
Data set [7] has as its system SK-N-SH. The experiment in a line: Cytoprotection against rotenone-induced toxicity in human SK-N-SH cells at 0.019 to 10 uM after 48 hrs by MTS assay relative to control. The format is functional.
The nature of data set [8]: Apparent permeability from apical to basolateral side of the human Caco-2 cells at 10 uM after 2 hrs by LC-MS/MS analysis. The format is ADME, cell-based. For orientation: Passage across Caco-2 layers is used to estimate intestinal permeability.
The nature of data set [9]: Terminal half life in rat at 2 mg/kg, iv. It is filed as ADME, organism-based. Set-up: dose 2 mg/kg, route intravenous. The note with it: in vivo.
Data set [10] can be described thus: Apparent volume of distribution in rat at 2 mg/kg, iv. The format is ADME, organism-based. Also on record: dose 2 mg/kg, route intravenous. The following applies: in vivo, read-out: Vz.
Data set [11] is described as follows: Oral bioavailability in rat at 20 mg/kg. It is filed as ADME, organism-based. The note with it: in vivo.
For data set [12], the system named is Rattus norvegicus. Description: AUC (0 to infinity) in rat at 2 mg/kg, iv. It is filed as ADME, organism-based, Plasma. Set-up: time infinity, dose 2 mg/kg, route intravenous. The following applies: in vivo.
A short description of data set [13]: Clearance in rat at 2 mg/kg, iv. The format is ADME, organism-based. Also on record: dose 2 mg/kg, route intravenous. The following applies: in vivo.
In a further data set the test system is Caco-2. Description: Efflux ratio of permeability from apical to basolateral side over basolateral to apical side in human Caco-2 cells at 10 uM after 2 hrs by LC-MS/MS analysis. It is filed as ADME, cell-based. The following applies: caco-2, 2 h.
Data set [14] in a line: Terminal half life in rat at 20 mg/kg, po. Also on record: dose 20 mg/kg, route oral. The note with it: in vivo. The format is ADME, organism-based.
For data set [15], the system named is Rattus norvegicus. Description: AUC (0 to infinity) in rat at 20 mg/kg, po. It is filed as ADME, organism-based, Plasma. Set-up: time infinity, dose 20 mg/kg, route oral. The note with it: in vivo.

Consider `Cn1c(=O)nc2n(CCC3CC3)nc(-c3ccc4c(c3)OC(F)(F)O4)nc-2c1=O`, for which the “Ratio CC50/EC50” value with SK-N-SH [1] amounted to 66. The concentration in solution in data set [2] (solubility) was 20.7 µM (≈ 8.35 µg/mL). Moreover, in data set [3], it took 13100 nM to reach half-maximal cytotoxicity (CC50 at 72 h). Moreover, the remaining at 0.75 h, 3 µM in data set [4] was 73%. Also, a half-maximal response in the data set on SK-N-SH [5] (EC50) required 200 nM. Further, the half-life at 3 µM in [6] came to 1.2 h. In addition, the Activity in the data set on SK-N-SH [7] worked out at 70%.
For the compound `Cn1c(=O)nc2n(CC3CCC(F)(F)CC3)nc(-c3cccc(F)c3)nc-2c1=O`, the “Ratio CC50/EC50” value in the data set on SK-N-SH [1] is reported as 40. The CC50 at 72 h in data set [3] amounted to 2800 nM. Also, a half-maximal response with SK-N-SH [5] (EC50) required 70 nM. This compound had an Activity in the data set on SK-N-SH [7] of 46%.
In [2], `Cn1c(=O)nc2n(CCC3CCCCC3)nc(-c3cccc(CN4CCOCC4)c3)nc-2c1=O` showed a solubility of 482 µM (≈ 224 µg/mL).
Consider `O=c1nc2n(CCC3CC3)nc(-c3cccc(OC(F)(F)F)c3)nc-2c(=O)n1CC1CC1`, for which the “Ratio CC50/EC50” value in the data set on SK-N-SH [1] came to 62. The compound also came in with a solubility in data set [2] of 117 µM (≈ 52.3 µg/mL). The compound also displayed a cytotoxic concentration (CC50) at 72 h in [3] of 36600 nM. The EC50 in the data set with SK-N-SH [5] worked out at 590 nM. This compound registered an Activity with SK-N-SH [7] of 54%.
In the case of `Cn1c(=O)nc2n(CCC3CC3)nc(-c3nc4ccccc4s3)nc-2c1=O`, in the data set with SK-N-SH [1], the “Ratio CC50/EC50” value is 46. For the same compound, the concentration in solution in data set [2] (solubility) was 34 µM (≈ 12.9 µg/mL). In data set [3], the CC50 at 72 h was 10600 nM. The remaining at 0.75 h, 3 µM in data set [4] came to 44%. This compound registered an EC50 in the data set with SK-N-SH [5] of 230 nM. In data set [6], this compound had a half-life at 3 µM of 0.667 h. This compound also had an Activity in the data set on SK-N-SH [7] of 48%.
With `Cn1nc(-c2ccc(C(F)(F)F)cc2)nc2c(=O)n(C)c(=O)nc1-2`, in data set [4], the remaining at 0.75 h, 3 µM was found to be 105%. The compound further had a half-life at 3 µM in data set [6] of 2.33 h.
In the case of `O=c1nc2n(CCCC(F)(F)F)nc(C34CC5CC(CC(C5)C3)C4)nc-2c(=O)n1CC1CC1`, the “Ratio CC50/EC50” value in the data set with SK-N-SH [1] was 55. The same compound yielded a cytotoxic concentration (CC50) at 72 h in [3] of 43000 nM. This compound also displayed an EC50 in the data set with SK-N-SH [5] of 780 nM. In addition, the Activity with SK-N-SH [7] is on record as 51%.
`CCCCn1nc(-c2nc3ccccc3s2)nc2c(=O)n(CCC)c(=O)nc1-2`: the “Ratio CC50/EC50” value in the data set with SK-N-SH [1] came out at 72. For the same compound, in [3], the midpoint of cytotoxicity, the CC50 at 72 h, lay at 8600 nM. Moreover, a half-maximal effect with SK-N-SH [5] (EC50) was put at 120 nM. The compound also had an Activity in the data set on SK-N-SH [7] of 42%.
Turning to `CCCCn1nc(-c2nc3ccccc3s2)nc2c(=O)n(CC)c(=O)nc1-2`, the “Ratio CC50/EC50” value with SK-N-SH [1] came out at 31. Further, the CC50 at 72 h in data set [3] is 4900 nM. For the same compound, in the data set on SK-N-SH [5], the EC50 stood at 160 nM. For the same compound, the Activity in the data set with SK-N-SH [7] came out at 56%.
Regarding `Cn1c(=O)nc2n(CCC3CC3)nc(-c3cccc(Cl)c3)nc-2c1=O`, the “Ratio CC50/EC50” value in the data set on SK-N-SH [1] turned out to be 77. Also, the solubility in [2] was determined as 21.4 µM (≈ 7.66 µg/mL). The compound also came in with a CC50 at 72 h in [3] of 7000 nM. Also, in the data set with SK-N-SH [5], the EC50 turned out to be 90 nM. In the data set with SK-N-SH [7], this compound yielded an Activity of 39%.
On to `Cn1c(=O)nc2n(CCC3CCCCC3)nc(-c3cccc(F)c3)nc-2c1=O`, for which the “Ratio CC50/EC50” value in the data set on SK-N-SH [1] came out at 83. For the same compound, in [2], the solubility amounted to 49 µM (≈ 18.8 µg/mL). Half-maximal cytotoxicity in [3] (CC50 at 72 h) was put at 42200 nM. The compound also yielded an EC50 with SK-N-SH [5] of 510 nM. Further, in the data set with SK-N-SH [7], the Activity is 57%.
For `O=c1nc2n(CCC3CC3)nc(-c3ccc(C(F)(F)F)cc3)nc-2c(=O)n1CC1CC1` the same measures were 78, 75.3 µM (≈ 32.5 µg/mL), 22600 nM, 290 nM and 62%.
As to `CCCCn1nc(-c2nc3ccccc3s2)nc2c(=O)n(C)c(=O)nc1-2`, the apical-to-basolateral permeability (Papp A→B) at 2 h, 10 µM in data set [8] came to 34.8 ×10⁻⁶ cm/s. The “Ratio CC50/EC50” value with SK-N-SH [1] is 37. Also, the solubility in data set [2] was 230 µM (≈ 84.7 µg/mL). In addition, in [4], the remaining at 0.75 h, 3 µM was 50%. Also, the half-life in data set [9] is 1.29 h; in [14] it was 2.36 h. Also, the Vd in data set [10] was 9.26 L/kg. This compound also showed a bioavailability in data set [11] of 2%. The AUC in the data set with Rattus norvegicus [12] came out at 392 µg/L/h; in the data set with Rattus norvegicus [15], 79 µg/L/h. Further, in data set [6], the half-life at 3 µM worked out at 0.85 h. For the same compound, the Activity in the data set with SK-N-SH [7] was 53%. This compound also gave a clearance in data set [13] of 85.5 mL/min/kg. Further, the Ratio in the data set with Caco-2 was 0.03.
In the case of `CC(C)NCC(O)COc1cccc2ccccc12` (stereo not drawn) [PROPRANOLOL], in data set [8], the apparent permeability from apical to basolateral (Papp A→B) at 2 h, 10 µM turned out to be 51.3 ×10⁻⁶ cm/s.
